Relative viability data for twelve cell lines are collected here from the supplement of paper PMC10307832.

Test in all cases: relative viability (nuclei count vs DMSO), 5 days (fraction); higher = more cells survive
Compound in the assay “Midostaurin + Lapatinib”: CO[C@@H]1[C@H](N(C)C(=O)c2ccccc2)C[C@H]2O[C@]1(C)n1c3ccccc3c3c4c(c5c6ccccc6n2c5c31)C(=O)NC4 [Midostaurin] + CS(=O)(=O)CCNCc1ccc(-c2ccc3ncnc(Nc4ccc(OCc5cccc(F)c5)c(Cl)c4)c3c2)o1 [Lapatinib] (partner 2 µM)
Summed up: (§1)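 Lung cancer cell lines in 1536-well plates were dosed by pin tool the day after seeding, either with one drug alone or with a fixed anchor-drug dose plus five library-drug doses (not always all listed) in √10 steps. After 5 days, cells were fixed and their nuclei stained in one step (final 0.05% Triton X-100, 1% formaldehyde, 1 ug/ml Hoechst), then counted on 4× images. Relative viability is the nuclei count in treated wells divided by that in vehicle wells. Values are medians of duplicate plates.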

Compound in the assay “Midostaurin + Vorinostat”: CO[C@@H]1[C@H](N(C)C(=O)c2ccccc2)C[C@H]2O[C@]1(C)n1c3ccccc3c3c4c(c5c6ccccc6n2c5c31)C(=O)NC4 [Midostaurin] + O=C(CCCCCCC(=O)Nc1ccccc1)NO [Vorinostat] (partner 1 µM)
An outline of the steps: as §1

Compound in assay [1]: COc1cc(-c2nn([C@H]3CC[C@H](N4CCN(C(C)=O)CC4)CC3)c3ncnc(N)c23)ccc1NC(=O)c1cc2ccccc2n1C + CC(=O)c1c(C)c2cnc(Nc3ccc(N4CCNCC4)cn3)nc2n(C2CCCC2)c1=O [Palbociclib] (partner 0.5 µM)
An outline of the steps: as §1

Compound in assay [2]: COc1cc(-c2nn([C@H]3CC[C@H](N4CCN(C(C)=O)CC4)CC3)c3ncnc(N)c23)ccc1NC(=O)c1cc2ccccc2n1C + Cc1nc(Nc2ncc(C(=O)Nc3c(C)cccc3Cl)s2)cc(N2CCN(CCO)CC2)n1 [Dasatinib] (partner 0.075 µM)
Summed up: as §1

Compound in assay [3]: COc1cc(-c2nn([C@H]3CC[C@H](N4CCN(C(C)=O)CC4)CC3)c3ncnc(N)c23)ccc1NC(=O)c1cc2ccccc2n1C + N=C(N)NC(=N)NCCc1ccccc1 [Phenformin] (partner 250 µM)
Summed up:
as §1

With NCI-H1299, the relative viability worked out at 0.959 in the assay with Midostaurin + Lapatinib (first compound 0.01 µM), 0.93 with Midostaurin + Lapatinib (first compound 0.03162 µM), 0.871 with Midostaurin + Lapatinib (first compound 0.1 µM) and 0.883 with Midostaurin + Lapatinib (first compound 0.3162 µM).
Regarding LCLC-103H, the relative viability with Midostaurin + Vorinostat (first compound 0.01 µM) was found to be 0.824; with Midostaurin + Vorinostat (first compound 0.03162 µM) it was 0.717; in the assay with Midostaurin + Vorinostat (first compound 0.1 µM) it was 0.806; in the assay with Midostaurin + Vorinostat (first compound 0.3162 µM) it was 0.792; in assay [1] (first compound 0.0128 µM), 0.509; in assay [1] (first compound 0.04048 µM) it was 0.474. Also, the relative viability worked out at 0.433 in assay [1] (first compound 0.128 µM); 0.503 in assay [1] (first compound 1.28 µM); 0.538 in assay [2] (first compound 0.0128 µM); 0.472 in assay [2] (first compound 0.04048 µM); 0.41 in assay [2] (first compound 0.128 µM); 0.449 in assay [2] (first compound 1.28 µM). For the same cell line, the relative viability in assay [3] (first compound 0.0128 µM) stood at 0.397; in assay [3] (first compound 0.04048 µM), 0.327; in assay [3] (first compound 0.128 µM), 0.342; in assay [3] (first compound 1.28 µM), 0.358.
For ChaGo-K-1, the relative viability with Midostaurin + Vorinostat (first compound 0.01 µM) came out at 0.746; with Midostaurin + Vorinostat (first compound 0.03162 µM) it was 0.811; with Midostaurin + Vorinostat (first compound 0.1 µM), 0.619; in the assay with Midostaurin + Vorinostat (first compound 0.3162 µM), 0.714; in assay [1] (first compound 0.0128 µM) it was 0.925; in assay [1] (first compound 0.04048 µM), 0.985. In addition, the relative viability came out at 0.873 in assay [1] (first compound 0.128 µM); 0.668 in assay [1] (first compound 1.28 µM); 0.693 in assay [2] (first compound 0.0128 µM); 0.62 in assay [2] (first compound 0.04048 µM); 0.568 in assay [2] (first compound 0.128 µM); 0.621 in assay [2] (first compound 1.28 µM). Also, the relative viability turned out to be 0.472 in assay [3] (first compound 0.0128 µM), 0.491 in assay [3] (first compound 0.04048 µM), 0.417 in assay [3] (first compound 0.128 µM) and 0.431 in assay [3] (first compound 1.28 µM).
Regarding SW 900, the relative viability with Midostaurin + Vorinostat (first compound 0.01 µM) worked out at 0.402; with Midostaurin + Vorinostat (first compound 0.03162 µM), 0.502; in the assay with Midostaurin + Vorinostat (first compound 0.1 µM), 0.52; with Midostaurin + Vorinostat (first compound 0.3162 µM), 0.458; in assay [1] (first compound 0.0128 µM), 0.564; in assay [1] (first compound 0.04048 µM) it was 0.584. For the same cell line, the relative viability turned out to be 0.538 in assay [1] (first compound 0.128 µM); 0.353 in assay [1] (first compound 1.28 µM); 0.616 in assay [2] (first compound 0.0128 µM); 0.707 in assay [2] (first compound 0.04048 µM); 0.487 in assay [2] (first compound 0.128 µM); 0.578 in assay [2] (first compound 1.28 µM). For the same cell line, the relative viability in assay [3] (first compound 0.0128 µM) was determined as 0.639; in assay [3] (first compound 0.04048 µM), 0.66; in assay [3] (first compound 0.128 µM), 0.494; in assay [3] (first compound 1.28 µM), 0.448.
Consider NCI-H596, for which the relative viability in the assay with Midostaurin + Lapatinib (first compound 0.01 µM) was determined as 1.21; with Midostaurin + Lapatinib (first compound 0.03162 µM) it was 1.12; in the assay with Midostaurin + Lapatinib (first compound 0.1 µM), 1.13; with Midostaurin + Lapatinib (first compound 0.3162 µM), 1.34; with Midostaurin + Vorinostat (first compound 0.01 µM), 0.554; in the assay with Midostaurin + Vorinostat (first compound 0.03162 µM), 0.645. The relative viability with Midostaurin + Vorinostat (first compound 0.1 µM) was determined as 0.625; with Midostaurin + Vorinostat (first compound 0.3162 µM) it was 0.877; in assay [2] (first compound 0.0128 µM), 0.564; in assay [2] (first compound 0.04048 µM), 0.73; in assay [2] (first compound 0.128 µM), 0.573; in assay [2] (first compound 1.28 µM), 0.559. The relative viability in assay [3] (first compound 0.0128 µM) came out at 0.665; in assay [3] (first compound 0.04048 µM), 0.896; in assay [3] (first compound 0.128 µM), 0.657; in assay [3] (first compound 1.28 µM) it was 0.579.
On to NCI-H1563, for which the relative viability with Midostaurin + Lapatinib (first compound 0.01 µM) turned out to be 0.929; with Midostaurin + Lapatinib (first compound 0.03162 µM), 0.97; in the assay with Midostaurin + Lapatinib (first compound 0.1 µM), 0.77; with Midostaurin + Lapatinib (first compound 0.3162 µM), 0.924; in assay [2] (first compound 0.0128 µM), 0.481; in assay [2] (first compound 0.04048 µM) it was 0.484. Also, the relative viability in assay [2] (first compound 0.128 µM) was 0.532; in assay [2] (first compound 1.28 µM) it was 0.488; in assay [3] (first compound 0.0128 µM), 0.608; in assay [3] (first compound 0.04048 µM), 0.635; in assay [3] (first compound 0.128 µM) it was 0.662; in assay [3] (first compound 1.28 µM) it was 0.617.
For A549, the relative viability with Midostaurin + Lapatinib (first compound 0.01 µM) stood at 0.954; with Midostaurin + Lapatinib (first compound 0.03162 µM) it was 0.854; with Midostaurin + Lapatinib (first compound 0.1 µM), 1; in the assay with Midostaurin + Lapatinib (first compound 0.3162 µM), 0.212; in assay [3] (first compound 0.0128 µM), 0.178; in assay [3] (first compound 0.04048 µM), 0.203. The values for the relative viability in assay [3] (first compound 0.128 µM) and in assay [3] (first compound 1.28 µM) were 0.151 and 0.185, respectively.
Consider NCI-H2342, for which the relative viability with Midostaurin + Vorinostat (first compound 0.01 µM) was found to be 0.741; with Midostaurin + Vorinostat (first compound 0.03162 µM) it was 0.764; with Midostaurin + Vorinostat (first compound 0.1 µM), 0.836; in the assay with Midostaurin + Vorinostat (first compound 0.3162 µM), 0.831; in assay [1] (first compound 0.0128 µM), 0.503; in assay [1] (first compound 0.04048 µM) it was 0.487. Besides, the relative viability amounted to 0.517 in assay [1] (first compound 0.128 µM); 0.514 in assay [1] (first compound 1.28 µM); 0.312 in assay [2] (first compound 0.0128 µM); 0.309 in assay [2] (first compound 0.04048 µM); 0.335 in assay [2] (first compound 0.128 µM); 0.323 in assay [2] (first compound 1.28 µM). Also, the relative viability came out at 0.529 in assay [3] (first compound 0.0128 µM), 0.584 in assay [3] (first compound 0.04048 µM), 0.637 in assay [3] (first compound 0.128 µM) and 0.628 in assay [3] (first compound 1.28 µM).
As for NCI-H1623, the relative viability in assay [2] (first compound 0.0128 µM) turned out to be 0.526; in assay [2] (first compound 0.04048 µM), 0.497; in assay [2] (first compound 0.128 µM) it was 0.557; in assay [2] (first compound 1.28 µM) it was 0.572; in assay [3] (first compound 0.0128 µM), 0.622; in assay [3] (first compound 0.04048 µM), 0.508. Besides, the relative viability in assay [3] (first compound 0.128 µM) amounted to 0.603; in assay [3] (first compound 1.28 µM) it was 0.53.
Regarding NCI-H522, the relative viability worked out at 0.862 with Midostaurin + Vorinostat (first compound 0.01 µM); 1.18 in the assay with Midostaurin + Vorinostat (first compound 0.03162 µM); 0.827 in the assay with Midostaurin + Vorinostat (first compound 0.1 µM); 1.03 with Midostaurin + Vorinostat (first compound 0.3162 µM); 1.08 in assay [1] (first compound 0.0128 µM); 0.864 in assay [1] (first compound 0.04048 µM). Besides, the relative viability in assay [1] (first compound 0.128 µM) was determined as 0.822; in assay [1] (first compound 1.28 µM) it was 0.778; in assay [2] (first compound 0.0128 µM), 0.794; in assay [2] (first compound 0.04048 µM), 0.843; in assay [2] (first compound 0.128 µM) it was 0.809; in assay [2] (first compound 1.28 µM) it was 0.897. The relative viability was found to be 0.598 in assay [3] (first compound 0.0128 µM), 0.625 in assay [3] (first compound 0.04048 µM), 0.641 in assay [3] (first compound 0.128 µM) and 0.541 in assay [3] (first compound 1.28 µM).
Regarding IA-LM, the relative viability came out at 0.886 with Midostaurin + Lapatinib (first compound 0.01 µM); 0.579 in the assay with Midostaurin + Lapatinib (first compound 0.03162 µM); 0.984 in the assay with Midostaurin + Lapatinib (first compound 0.1 µM); 0.551 with Midostaurin + Lapatinib (first compound 0.3162 µM); 0.822 with Midostaurin + Vorinostat (first compound 0.01 µM); 0.889 with Midostaurin + Vorinostat (first compound 0.03162 µM). Further, the relative viability stood at 0.943 in the assay with Midostaurin + Vorinostat (first compound 0.1 µM) and 0.907 with Midostaurin + Vorinostat (first compound 0.3162 µM).
Take EBC-1: the relative viability came to 0.208 in the assay with Midostaurin + Lapatinib (first compound 0.01 µM), 0.212 in the assay with Midostaurin + Lapatinib (first compound 0.03162 µM), 0.217 in the assay with Midostaurin + Lapatinib (first compound 0.1 µM) and 0.222 with Midostaurin + Lapatinib (first compound 0.3162 µM).
